We go through one molecule from ChEMBL document CHEMBL1158095, “Trungapeptins A-C, cyclodepsipeptides from the marine cyanobacterium Lyngbya majuscula” (J Nat Prod, 2006).

Active and inactive are the calls of the source. The calls are words filed in the database; no cut-off is given here.

The test system of one experiment is KB. The experiment in a line: Cytotoxicity against human KB cells at 10 ug/mL. It is filed as functional, cell-based.
The test system of another experiment is LoVo. The experiment in a line: Cytotoxicity against human LoVo cells at 10 ug/mL. Type of experiment: functional, cell-based.

As to `C#CCCC[C@H]1OC(=O)[C@H]([C@@H](C)CC)NC(=O)[C@@H]2CCCN2C(=O)[C@H](Cc2ccccc2)OC(=O)[C@H](C(C)C)N(C)C(=O)[C@H](C(C)C)NC(=O)[C@H]1C`, the result in the experiment on KB and in the experiment on LoVo was inactive.
